This is an account of results in US20210338694A1, “SOS1 ALLOSTERIC SITE TARGETING” (priority 2020, published 2021).

Common to all, as to type: cell-based
The subject of test [1] is Mononuclear bone marrow cells harvested from Kras G12D/+ mice. Kind of test: CellTiter-Glo Luminescent Cell Viability Assay (growth inhibitory assay). Conditions: Mus musculus, 48 h, 40 μM compound, two days of incubation, percentage of cells still alive at the end of the experiment, read-out: 40 μM (% Residual Activity). On the procedure:
Mononuclear bone marrow cells harvested from Kras G12D/+ mice were tested for proliferation in a CellTiter-Glo® Luminescent Cell Viability Assay by Promega (Madison, Wis.) carried out by following the instructions provided by the manufacturer in the presence of 40 μM of 176 selected test compounds. […] The structures of these active compounds are shown in Table 1, along with the percentage of residual activity after two days of incubation with 40 μM of the compound. The residual activity is the percentage of cells that were still alive at the end of the experiment.

Test [2] concerns ERK activation of oncogenic Kras (G12D) pancreatic cancer cells. Kind of test: ERK activation by Western blotting of p-ERK, total ERK. The following applies: Western blot, FIGS. 2A and 2B. A general note: A western blot detects proteins with antibodies after separation by electrophoresis.
Test [3] relates to Kras (G12D) transformed pancreatic cancer cells (4039). The experiment in a line: Cell growth in tissue culture over a four-day period. The following applies: 40 μM, Kras (G12D) cells 4039, FIG. 1. As to the method: Kras (G12D) transformed pancreatic cancer cells (4039) and wild-type Kras expressing pancreatic cancer cells (4037) were each exposed to 40 μM of NSC-70220. Cell growth in the tissue culture was monitored by assays over a four-day period.

Test [4] has as its system oncogenic Kras (G12C) transformed pancreatic MIA-PaCa-2 cells. The experiment in a line: Cell growth of treated cells. The following applies: Kras (G12C) MIA-PaCa-2 cells, FIGS. 3-5. On the procedure:
FIGS. 3-5 show data from experiments in which oncogenic Kras (G12C) transformed pancreatic MIA-PaCa-2 cells were treated with NSC-70220, and an experiment in which wild-type Kras expressing pancreatic BxPC-3 ductal cells were treated with NSC-70220.

`O=C(Nc1ccccc1C(=O)O)c1ccc([N+](=O)[O-])cc1` [Compound 114395]: the activity at 40 µM in test [1] is 16%. For the compound `O=C(N/N=C(/C=C/c1ccccc1)c1ccccc1)c1ccccc1O` [Compound 121366], the activity at 40 µM in test [1] was found to be 12%. Still for that read-out and setting: next, `O=C(NCc1ccccc1)/C(=C/C=C\c1ccccc1)NC(=O)c1ccccc1` [Compound 127987]: 5%. Take `COc1ccc(C=C2c3ccccc3-c3ccccc32)cc1` [Compound 262294]: the activity at 40 µM in test [1] stood at 13%. Still for that read-out and setting: next, `C=CCc1ccc(/C=N/NC(=O)c2ccccc2O)cc1O` [Compound 290794]: 2%; `Cc1cc(C)c2oc(-c3ccc(C)c(/N=C/C=C/c4ccc(Br)c([N+](=O)[O-])c4)c3)nc2c1` [Compound 312987]: 8%; `O=C(N/N=C/c1ccc(O)c(O)c1)c1ccc(-c2ccccc2)cc1` [Compound 377089]: 6%.

As for `O=C(N/N=C/c1ccc(OCc2ccccc2)cc1)c1cccc(F)c1` [Compound 377247], in test [1], the activity at 40 µM is 11%. Still for that read-out and setting: next, `O=C(/C=C(\O)C(F)(F)/C(O)=C/C(=O)c1ccccc1)c1ccccc1` [Compound 387846]: 9%; `O=C(N/N=C/C=C/c1ccc([N+](=O)[O-])o1)c1ccccc1O` [Compound 388883]: 1%; `O=C(NC(=S)NNC(=O)c1ccccc1O)c1ccc(-c2ccccc2)cc1` [Compound 390481]: 10%. In the case of `O=C(N/N=C/c1ccc2ccccc2c1)c1ccccc1O` [Compound 393689], the activity at 40 µM in test [1] worked out at 11%. On to `O=C(N/N=C/c1ccc(O)c(Br)c1)c1cc(Br)ccc1O` [Compound 394392], for which, in test [1], the activity at 40 µM is 3%. On the same count and under the same terms, next, `O=[N+]([O-])c1ccc(C=C(c2nc3ccccc3s2)c2nc3ccccc3s2)cc1` [Compound 408776]: 12%; `O=C(NNC(=O)c1ccccc1C(=O)O)c1ccccc1O` [Compound 473089]: 13%. For the compound `O=C(/C=C/c1ccc(/C=C/C(=O)c2ccc(O)cc2)cc1)c1ccc(O)cc1` [Compound 511128], the activity at 40 µM in test [1] stood at 1%. As for `O=C(C(=Cc1ccccc1[N+](=O)[O-])C(=O)c1ccccc1)c1ccccc1` [Compound 526470], in test [1], the activity at 40 µM came out at 15%. Still for that read-out and setting: the value for `O=C(Nc1cc(Cl)ccc1O)c1ccc(Cl)c(C(=O)c2ccc(Cl)cc2)c1` [Compound 773778] was 8%. For the compound `O=C(/C=C/c1ccccc1[N+](=O)[O-])c1ccco1` [Compound 775432], the activity at 40 µM in test [1] was found to be 0%.

Take `O=C(NC(=S)Nc1ccccc1O)c1ccc(-c2ccccc2)cc1` [Compound 920300]: the activity at 40 µM in test [1] amounted to 12%. Consider `O=[N+]([O-])c1ccccc1/C=C/C=C1c2ccccc2-c2ccccc21` [NSC-70220], for which the “inhibition of ERK activation” value in test [2] is on record as “selectively inhibits ERK activation”. Moreover, in test [3], the “inhibition of cell growth” value is reported as “selectively inhibits”. Further, the inhibition of growth entry in test [4] was “selectively inhibits growth”. Moreover, in test [1], the activity at 40 µM lay within 12 to 15%.
